We go through 7 substances from patent US7875587B2, “Peptide analogues of GIP for treatment of diabetes, insulin resistance and obesity” (UUTECH Limited, priority 2004, dated 2011).

Data set [1] concerns BRIN-BD11 cells. Briefly: GIP-stimulated insulin release from BRIN-BD11 cells (antagonism). In kind it is cell-based. The following applies: 5.6 mM glucose, native GIP 10^-7 M. On the procedure:
Tissue culture. […] Cells were maintained in sterile tissue culture flasks (Corning Glass Works, Sunderland, UK) at 37° C. in an atmosphere of 5% CO2 and 95% air using an LEEC incubator (Laboratory Technical Engineering, Nottingham, UK). Acute studies of insulin release. Insulin release from BRIN-BD11 cells was determined using cell monolayers ([…]. et al., 1996, Diabetes 45:1132-1140). Cells were harvested with the aid of trypsin/EDTA (Gibco), seeded into 24-multiwell plates (Nunc, Roskilde, Denmark) at a density of 1.0×10^5 cells per well, and allowed to attach overnight at 37° C.

Another data set deals with T1, DPP IV (Sus scrofa, UniProt P22411).
T1 construct: purchased Sigma (Poole, Dorset, UK)
As to the kind of experiment: Degradation of GIP and analogues by DPP IV (HPLC). In kind it is in vitro ADME. On the procedure: Degradation of GIP and Tyr^1-glucitol GIP by DPP IV. HPLC-purified GIP or Tyr^1-glucitol GIP were incubated at 37° C. with DPP-IV (5 mU) for various time periods in a reaction mixture made up to 500 μl with 50 mmol/l triethanolamine-HCl, pH 7.8 (final peptide concentration 1 mmol/l). Enzymatic reactions were terminated after 0, 2, 4 and 12 hours by addition of 5 μl of 10% (v/v) TFA/water. Samples were made up to a final volume of 1.0 ml with 0.12% (v/v) TFA and stored at −20° C. prior to HPLC analysis.
(§1) HPLC analysis of degraded GIP and Tyr^1-glucitol GIP. […] Using 0.1% (v/v) TFA in 70% acetonitrile/H20, the concentration of acetonitrile in the eluting solvent was raised from 0% to 31.5% over 15 min, to 38.5% over 30 minutes and from 38.5% to 70% over 5 minutes, using linear gradients. The absorbance was monitored at 206 nm and peak areas evaluated using a model 2221 LKB integrator. Samples recovered manually were concentrated using a Speed-Vac concentrator.
(§2) Electrospray ionization-mass spectrometry (ESI-MS) was carried out as described in Example 2. Degradation of GIP and novel GIP analogues by DPP IV and human plasma was carried out as described in Example 2.

A short description of data set [2]: Degradation of GIP and analogues by human plasma (HPLC). In kind it is in vitro ADME. How it is done: Degradation of GIP and Tyr^1-glucitol GIP by human plasma. […] […] The reactions were terminated by addition of 5 μl of TFA and the final volume adjusted to 1.0 ml using 0.1% v/v TFA/water. Samples were centrifuged (13,000 g, 5 minutes) and the supernatant applied to a C-18 Sep-Pak cartridge (Millipore-Waters) which was previously primed and washed with 0.1% (v/v) TFA/water. […] The volume was adjusted to 1.0 ml with 0.12% (v/v) TFA/water prior to HPLC purification.
as §1, §2

Another data set deals with Wistar rats. Briefly: In vivo plasma glucose and insulin after i.p. glucose with peptide in Wistar rats. Details: species or system rat. On the procedure: In vivo biological activity of GIP and Tyr^1-glucitol GIP. Effects of GIP and Tyr^1-glucitol GIP on plasma glucose and insulin concentrations were examined using 10-12 week old male Wistar rats. The animals were housed individually in an air conditioned room and 22±2° C. with a 12 hour light/12 hour dark cycle. Drinking water and a standard rodent maintenance diet (Trouw Nutrition, Belfast, Northern Ireland) were supplied ad libitum. Food was withdrawn for an 18 hour period prior to intraperitoneal injection of glucose alone (18 mmol/kq body weight) or in combination with either GIP or Tyr^1-glucitol GIP (10 nmol/kg). Test solutions were administered in a final volume of 8 ml/kg body weight. Blood samples were collected at 0, 15, 30 and 60 minutes from the cut tip of the tail of conscious rats into chilled fluoride/heparin microcentrifuge tubes (Sarstedt, Numbrecht, Germany). Samples were centrifuged using a Beckman microcentrifuge for about 30 seconds at 13,000 g. Plasma samples were aliquoted and stored at −20° C. prior to glucose and insulin determinations. All animal studies were done in accordance with the Animals (Scientific Procedures) Act 1986.
Analyses. Plasma glucose was assayed by an automated glucose oxidase procedure using a Beckman Glucose Analyzer II [33]. Plasma insulin was determined by dextran charcoal radioimmunoassay as described previously. Incremental areas under plasma glucose and insulin area under the curve (AUC) were calculated using a computer program (CAREA) employing the trapezoidal rule with baseline subtraction. Results are expressed as mean±SEM and values were compared using the Student's unpaired t-test.

Data set [3] has as its system BRIN-BD11 cells. As to the kind of experiment: Acute tests for insulin secretion from BRIN-BD11 cells. In kind it is cell-based. How it is done: Culture of insulin secreting cells. BRIN-BD11 cells were cultured in sterile tissue culture flasks (Corning, Glass Works, UK) using RPMI-1640 tissue culture medium containing 10% (v/v) foetal calf serum, 1% (v/v) antibiotics (100 U/ml penicillin, 0.1 mg/ml streptomycin) and 11.1 mM glucose. The cells were maintained at 37° C. in an atmosphere of 5% CO2 and 95% air using a LEEC incubator (Laboratory Technical Engineering, Nottingham, UK).
Acute tests for insulin secretion. Before experimentation, the cells were harvested from the surface of the tissue culture flasks with the aid of trypsin/EDTA (Gibco), seeded into 24-multiwell plates (Nunc, Roskilde, Denmark) at a density of 1.5×10^5 cells per well, and allowed to attach overnight at 37° C. Acute tests for insulin release were preceded by 40 minutes pre-incubation at 37° C. in 1.0 ml Krebs Ringer bicarbonate buffer (115 mM NaCl, 4.7 mM KCl, 1.28 mM CaCl2, 1.2 mM KH2PO4, 1.2 mM MgSO4, 10 mM NaHCO3, 5 g/l bovine serum albumin, pH 7.4) supplemented with 1.1 mM glucose. Test incubations were performed (n=12) at two glucose concentrations (5.6 mM and 16.7 mM) with a range of concentrations (10^−13 to 10^−8 M) of GIP or GIP analogues. After 20 minutes incubation, the buffer was removed from each well and aliquots (200 μl) were used for measurement of insulin by radioimmunoassay.

Where [4] appears, read: 10 nmol/kg i.p. with glucose 18 mmol/kg, rats.

Starred links: 1 amine or outer side, 2 acyl side, 3 side chain; linkers in the order of their positions; H or OH if unused. Non-standard residues stand in square brackets, D forms with d. No end group written: not given here. X1 = O=C([C@H](Cc1ccc(O)cc1)N(C[C@H](O)[C@@H](O)[C@H](O)[C@H](O)CO)[*:1])[*:2]; Hyp = O=C(O)[C@@H]1C[C@@H](O)CN1

T1 sequence (P22411 whole entry): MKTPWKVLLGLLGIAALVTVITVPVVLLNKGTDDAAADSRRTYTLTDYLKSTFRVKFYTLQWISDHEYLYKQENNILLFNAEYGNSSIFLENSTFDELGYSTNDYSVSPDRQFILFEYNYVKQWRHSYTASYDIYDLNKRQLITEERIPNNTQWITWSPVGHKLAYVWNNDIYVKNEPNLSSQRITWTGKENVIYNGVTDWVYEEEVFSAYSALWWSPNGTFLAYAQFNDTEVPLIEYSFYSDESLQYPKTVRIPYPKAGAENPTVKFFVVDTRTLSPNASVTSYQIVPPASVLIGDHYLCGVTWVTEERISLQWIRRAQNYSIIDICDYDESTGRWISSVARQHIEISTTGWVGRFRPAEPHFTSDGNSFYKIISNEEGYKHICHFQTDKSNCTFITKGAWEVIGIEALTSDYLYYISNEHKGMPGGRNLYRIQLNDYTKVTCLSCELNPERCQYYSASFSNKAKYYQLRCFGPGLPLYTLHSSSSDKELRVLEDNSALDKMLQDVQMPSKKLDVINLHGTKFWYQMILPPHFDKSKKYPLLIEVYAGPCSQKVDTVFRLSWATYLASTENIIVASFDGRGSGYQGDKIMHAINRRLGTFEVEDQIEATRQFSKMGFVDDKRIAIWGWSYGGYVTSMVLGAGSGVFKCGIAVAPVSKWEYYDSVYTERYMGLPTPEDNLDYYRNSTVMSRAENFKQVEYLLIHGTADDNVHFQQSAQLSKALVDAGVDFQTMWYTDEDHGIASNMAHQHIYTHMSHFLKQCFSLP

For the substance “(Hyp^3)GIP: Glu^3-substituted form of GIP (hydroxyproline at position 3) (YA[Hyp]GTFISDYSIAMDKIHQQDFVNWLLAQKGKKNDWKHNITQ)”, in the data set with BRIN-BD11 cells [1], the “inhibition of GIP-stimulated insulin secretion” value (“inhibition” below) is listed as “inhibited in a dose-dependent fashion”.
In the case of “(Lys^3)GIP: Glu^3-substituted form of GIP (lysine at position 3) (YAKGTFISDYSIAMDKIHQQDFVNWLLAQKGKKNDWKHNITQ)”, the “inhibition” value with BRIN-BD11 cells [1] is “inhibited in a dose-dependent fashion”.
“(Phe^3)GIP: Glu^3-substituted form of GIP (phenylalanine at position 3) (YAFGTFISDYSIAMDKIHQQDFVNWLLAQKGKKNDWKHNITQ)”: in the data set on BRIN-BD11 cells [1], the “inhibition” value was “inhibited in a dose-dependent fashion”.
On to “(Trp^3)GIP: Glu^3-substituted form of GIP (tryptophan at position 3) (YAWGTFISDYSIAMDKIHQQDFVNWLLAQKGKKNDWKHNITQ)”, for which, in the data set on BRIN-BD11 cells [1], the “inhibition” value was “inhibited in a dose-dependent fashion”.
Consider “(Tyr^3)GIP: Glu^3-substituted form of GIP (tyrosine at position 3) (YAYGTFISDYSIAMDKIHQQDFVNWLLAQKGKKNDWKHNITQ)”, for which, in the data set on BRIN-BD11 cells [1], the “inhibition” value was “inhibited in a dose-dependent fashion”.
Still for that read-out and setting: for “GIP(3-42): N-terminally truncated GIP, main DPP IV metabolite after removal of Tyr^1-Ala^2 (EGTFISDYSIAMDKIHQQDFVNWLLAQKGKKNDWKHNITQ; listed as Homo sapiens)” the value was “inhibited in a dose-dependent fashion”.
For the substance “[X1]AEGTFISDYSIAMDKIHQQDFVNWLLAQKGKKNDWKHNITQ [Glycated GIP]”, at DPP IV (Example 2, 2-12 hours incubation), the “stability on incubation with DPP IV” value is “remained almost completely intact”. Also, the “resistance to in vitro degradation with DPP IV relative to native GIP” value on DPP IV (Example 3, summary of Table 1) is listed as “more resistant than native GIP”. Moreover, on DPP IV (incubation with DPP IV, 0 h), the “% Intact peptide remaining after time (h)” value came to 100%. On DPP IV (isolated enzyme dpp iv, pH 7.8, incubation with DPP IV, 2 h, read-out: % Intact peptide remaining after time (h)), the share remaining (commonly the share of the starting amount still present when the sample was taken) at 2 h, 1 mmol/l was found to be 100%. The amount remaining at 4 h, 1 mmol/l at DPP IV (isolated enzyme dpp iv, pH 7.8, incubation with DPP IV, 4 h, read-out: % Intact peptide remaining after time (h)) stood at 100%. For the same substance, on DPP IV (isolated enzyme dpp iv, pH 7.8, incubation with DPP IV, 8 h, read-out: % Intact peptide remaining after time (h)), the fraction remaining at 8 h, 1 mmol/l worked out at 100%. In addition, at DPP IV (isolated enzyme dpp iv, pH 7.8, incubation with DPP IV, 24 h, read-out: % Intact peptide remaining after time (h)), the share remaining at 24 h, 1 mmol/l was 100%. Further, the “% Intact peptide remaining after incubations with human plasma” value in data set [2] (0 h) was found to be 100%. In data set [2] (24 hours in the presence of DPA), the “effect of DPA on plasma degradation of the peptide” value is “complete abolition of degradation”. Also, the “% Intact peptide remaining after incubations with human plasma” value in data set [2] (24 hours in the presence of DPA (diprotin A)) is 100%. Besides, the “degradation by human plasma” value in data set [2] (Example 2, 4 hours incubation) was “did not result in the formation of any detectable degradation fragments”. The amount remaining at 2 h, 20 µg/ml in data set [2] (human, plasma, pH 7.8, 2 h, read-out: % Intact peptide remaining after incubations with human plasma) was found to be 100%. In addition, the amount remaining at 4 h, 20 µg/ml in data set [2] (human, plasma, pH 7.8, 4 h, read-out: % Intact peptide remaining after incubations with human plasma) is 100%. For the same substance, the share remaining at 8 h, 20 µg/ml in data set [2] (human, plasma, pH 7.8, 8 h, read-out: % Intact peptide remaining after incubations with human plasma) was determined as 100%. In data set [2] (human, plasma, pH 7.8, 24 h, read-out: % Intact peptide remaining after incubations with human plasma), the fraction remaining at 24 h, 20 µg/ml amounted to 100%. Further, in the data set with Wistar rats (10 nmol/kg i.p. with glucose), the “overall insulin response (AUC) compared with glucose alone” value is listed as “significantly greater” and the “plasma insulin response (AUC) compared with GIP” value is “significantly greater than after GIP”. Moreover, in the data set with Wistar rats (setting [4]), the “increase of antihyperglycemic action relative to GIP, estimated from AUC” value is listed as 38% and the “increase of insulin-releasing action relative to GIP, estimated from AUC” value is listed as 62%. In the data set on Wistar rats (10 nmol/kg i.p. with glucose, vs GIP), the “plasma glucose AUC compared to GIP” value is given as “significantly lower”. In the data set with Wistar rats (10 nmol/kg i.p. with glucose, vs glucose alone, 0-60 min), the “plasma glucose concentrations and AUC compared with control group” value is “significantly lower”. In the data set with BRIN-BD11 cells [3] (5.6 and 16.7 mM glucose, 10^-13 to 10^-8 M peptide), the “insulin secretion from BRIN-BD11 cells” value was “considerably greater insulinotropic response compared with native peptide”. In the data set with BRIN-BD11 cells [3] (glucose-responsive clonal B-cells), the “insulin-releasing potency relative to GIP” value is given as “several orders of magnitude greater than GIP”.
